Source: patent publication US20260242340A1, “COMPOUNDS AND METHODS FOR TREATING PROTEIN AGGREGATION DISEASES” (ACELOT, INC., priority 2023, published 2026)

Legend:
[1] = target: toxic alpha-synuclein oligomers (Homo sapiens, UniProt P37840); test: Neuronal cell toxicity assay (MTT), alpha-synuclein oligomers; assay type: cell-based; details: 10 μM compound; primary rat neurons; 100% = cells without alpha-synuclein oligomers, 0% = oligomers and DMSO
Experimental: (§1) Primary rat cortical and striatal neurons were prepared from foetuses' brain as previously described (Garcia et al., Diabetes, Obesity & Metabolism 2010, 12, 403-413; Roby et al., Food chemistry 2015, 171, 397-404; Colin et al., Biochimie 2016, 130, 178-187). Briefly, the embryos were extracted, brains were collected and dissected using a binocular magnifier. Embryonic cortical/striatal tissues were dissociated by a combination of enzymatic digestion and mechanical dissociation. The relative number of live cells in cell suspension was evaluated for each cortical and striatal neurons using Thoma cell counting chamber and Axio Scope A1 microscope (Carl Zeiss, Oberkochen, Germany). Dissociated neurons were plated (80,000 cells/well) in 48-well plates pre-coated with 15 μg/mL Poly-ornithine (Sigma), 1 μg/ml Laminin (Sigma). Cells were cultured in Neurobasal medium (Invitrogen, Paris, France) serum free of and supplemented with 2% (v/v) of B-27 Supplement (Invitrogen). […]
(§2) To induce neuronal toxicity, neurotoxin (oligomeric forms of Aβ, Tau and alpha-synuclein at 0.1-5 μM) were used. […] Cell viability was evaluated by a 3-(4,5-dimethylthiazol-2-yl)-2,5-diphenyl-2H-tetrazolium bromide (MTT) assay at 24-72 h post neurotoxin challenge. […] After complete solubilization of formazan, absorbance was recorded at 500 nm with a spectrophotometer (SpectraMax® i3x, Molecular Devices, San José, USA).

[2] = target: T1, alpha-synuclein (Homo sapiens, UniProt P37840); test: Alpha-synuclein thioflavin T assay; assay type: biochemical; details: 250 μM compound on pre-formed aggregates of 50 μM alpha-synuclein, 24 hours; 100% = alpha synuclein + DMSO
T1 construct: purchased Proteos RP-003
Experimental: Recombinant alpha-synuclein monomeric protein was procured from Proteos (catalog no. RP-003, 10 mg/ml or 700 μM concentration). Prior to aggregation, the protein was centrifuged at 10,000 rpm for 5 minutes to remove any pre-existing aggregates. The stock solution was then diluted to 50 μM concentration in filtered 1×PBS and allowed to aggregate with continuous shaking at 1000 rpm on a thermomixer for 96 hours at 37° C. After 96 hours, the ThT fluorescence was checked for the sample to confirm aggregate formation using ThT, a well-known amyloid marker dye. The ThT active aggregates were then used for high-throughput small molecule inhibitor screening. For screening small molecule disaggregators, 10 mM DMSO stock solutions of small molecules were diluted to 250 μM in the reaction mix containing 20 μM ThT and aggregates formed by 50 μM alpha-synuclein. As a positive/vehicle control, 100% DMSO stock was diluted to 2.5% to match the DMSO in the small molecule conditions. ThT fluorescence assay was performed for 24 hours with 3 replicates per sample in a 384 well plate (Corning low volume black/clear flat bottom) on a microplate reader (Molecular Devices SpectraMax iD5 or BioTek Agilent Synergy Neo2) using excitation wavelength of 440 nm and emission wavelength of 490 nm. The temperature was maintained at 37° C. and the plate was continuously shaken throughout the measurement. All data were plotted and analyzed in GraphPad Prism.

[3] = target: peptide fragment of TAR DNA-binding protein 43 (TDP-43) (Homo sapiens, UniProt Q13148); test: Ion-mobility mass spectrometry (IM-MS) of TDP-43 peptide oligomerization; assay type: biochemical; details: approximately 4 hours after addition of compound to aggregated peptide sample; for 6mer/hexamer peak of TDP-43 peptide (IM-MS, FIG. 2): versus control
Source text: One of the assays used to determine the effectiveness of the compounds is Ion Mobility Mass Spectroscopy, or IM-MS. In this assay, a protein solution was fed into the IM-MS tube. At the entrance to the tube, an electric field ionized the proteins, propelling them into the body of the tube, where a constant electric field propelled them forward. Upon reaching the end of the tube, the ionized proteins were counted by a particle detector, which can also measure the mass/charge ratio and flight time of each particle.
Methods: IM-MS was utilized to monitor the oligomerization of a peptide fragment of TAR DNA-binding protein 43 (TDP-43) in the presence of compounds 1 and 2 using methods as described in Laos et al ACS Chem. Neuro. 2019, 10 (9), 4112-4123; and Biochemistry 2019, 59 (4), 499-508. The accumulation of TDP-43 aggregates in the central nervous system is a common feature of many neurodegenerative diseases, such as amyotrophic lateral sclerosis, frontotemporal dementia, Alzheimer's disease, and limbic predominant age-related TDP-43 encephalopathy. The ability of IM-MS to separate TDP-43 aggregate species of a specific [m]z+ (m=mass, z=charge) that contains different [n]z+ (n=number of TDP-43 peptide molecules aggregated together) by measuring the arrival time distributions (ATDs) yields oligomeric distribution spectrographs.
In FIG. 2, the number denoted at the top of each peak is the peptide aggregate size (e.g., 6=6 peptides aggregated together). The spectrograph designated as Control is the peptide form of TDP-43 without any protein aggregation disrupting compound added. Measurements were taken approximately 4 hours after addition of compound to aggregated peptide sample. […] The 6mer is the toxic oligomer that propagates disease and neuronal degeneration. FIG. 2 also discloses that the addition of compound 1 or compound 2 decreased the number of higher-order TDP-43 oligomers and increased the number of TDP-43 monomers and dimers.
We conducted two types of experiments. The first was a co-incubation experiment, where we added the compounds to a fresh solution of monomeric protein, and allowed the protein to aggregate (or, ideally, not aggregate) in the presence of the compound. The second experiment was a recovery experiment, where we added our compounds to a solution of pre-aggregated protein. Co-incubation experiments allowed us to determine if the compounds can prevent initial aggregation, while recovery experiments allowed us to determine if the compounds can break up existing aggregates.

[4] = test system: toxic tau oligomers; test: Neuronal cell toxicity assay (MTT), tau oligomers; assay type: cell-based; details: primary rat neurons, 100% = cells without tau oligomers, 0% = tau oligomers and DMSO
Experimental: as §1, §2

SMILES | % rescue at 10 μM comopund from toxic alpha-synuclein oligomers [1] [%] | % alpha synuclein aggregation as measured on ThT [2] [%] | number of TDP-43 monomers and dimers (IM-MS, FIG. 2) [3] | number of higher-order TDP-43 oligomers (IM-MS, FIG. 2) [3] | 6mer/hexamer peak of TDP-43 peptide (IM-MS, FIG. 2) [3] | % rescue at 10 μM compound from toxic tau oligomers [4] [%]
CC(=O)Nc1ccc2c(c1)CCN(CCc1cccc(Cl)c1)C2 [Compound 1] | 24 | 77.8 | increased | decreased | depleted | 
CC(=O)Nc1ccc2c(c1)CCN(CCc1ccc(F)c(Cl)c1)C2 [Compound 2] |  | 95.6 | increased | decreased | depleted | 33.7
